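These data come from cells grown in 96-well plates and exposed to compound for 48 hours at five concentrations. At the GI50, growth is halved. TGI marks complete inhibition of growth.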
Key:
Test in all cases: inhibition of tumour cell growth, NCI panel, 48 h
786-0 renal = system: 786-0 renal
HS 578T breast = system: HS 578T breast
IGROV1 ovarian = system: IGROV1 ovarian
LOX IMVI melanoma = system: LOX IMVI melanoma
NCI/ADR-RES ovarian = system: NCI/ADR-RES ovarian
OVCAR-4 ovarian = system: OVCAR-4 ovarian
SN12C renal = system: SN12C renal
SW-620 colon = system: SW-620 colon
T-47D breast = system: T-47D breast
UO-31 renal = system: UO-31 renal

Row | Structure (SMILES) | TGI (786-0 renal) | TGI (HS 578T breast) | TGI (IGROV1 ovarian) | TGI (LOX IMVI melanoma) | TGI (NCI/ADR-RES ovarian) | TGI (OVCAR-4 ovarian) | TGI (SN12C renal) | TGI (SW-620 colon) | TGI (T-47D breast) | TGI (UO-31 renal) | GI50 (786-0 renal) | GI50 (HS 578T breast) | GI50 (IGROV1 ovarian) | GI50 (LOX IMVI melanoma) | GI50 (NCI/ADR-RES ovarian) | GI50 (OVCAR-4 ovarian) | GI50 (SN12C renal) | GI50 (SW-620 colon) | GI50 (T-47D breast) | GI50 (UO-31 renal)
1 | Oc1ccc(Br)cc1C=NC1CCCCC1 | > 100 µM | > 100 µM | > 100 µM | > 100 µM | > 100 µM | > 100 µM | 19.5 µM | > 100 µM | 75.5 µM | > 100 µM |  |  |  |  |  |  |  |  |  | 
2 | O=c1cccccc1O | > 100 µM | > 100 µM | > 100 µM | > 100 µM | > 100 µM | > 100 µM |  | > 100 µM | > 100 µM | > 100 µM |  |  |  |  |  |  |  |  |  | 
3 | NC(CCl)=NCC12CC3CC(CC(C3)C1)C2 | 13.2 µM | 42.1 µM | 31.7 µM | 2.67 µM | 14.4 µM | 17.4 µM | 15.7 µM | 4.37 µM | 20.1 µM | 15.8 µM | 0.966 µM | 4.47 µM | 0.525 µM | 0.805 µM | 0.625 µM | 1.87 µM | 1.56 µM | 0.338 µM | 1.2 µM | 0.74 µM
4 | OCC#Cc1ccccc1C#Cc1ccc(C#Cc2ccccc2C#CCO)cc1 | 82.6 µM | 58.7 µM | > 100 µM | > 100 µM | > 100 µM | > 100 µM | > 100 µM | > 100 µM | > 100 µM | > 100 µM | 32 µM | 24.3 µM | 30.4 µM | 48.1 µM | 55.2 µM | 65.8 µM | 31.6 µM | 38.1 µM | > 100 µM | 36 µM
5 | N[C@@H](Cc1c[nH]c2ccccc12)C(=O)NC1CCN(Cc2c[nH]c3ccc(Cl)cc23)CC1 | 24.9 µM | 24.5 µM | 23.4 µM | 8.95 µM | > 100 µM | 22 µM | 30.4 µM | 16.8 µM | 20 µM | 26.4 µM | 11.4 µM | 7.63 µM | 8.78 µM | 2.77 µM | 65.3 µM | 8.14 µM | 15.3 µM | 4.79 µM | 4.65 µM | 13 µM

— PubChem BioAssay (NCI)
